Test results published in patent publication US12606528B2, “Methods and materials for inhibiting NF-kB activity” (University of Pittsburgh - Of the Commonwealth System of …, priority 2019, dated 2026).

These compounds were tested on NF-κB (assay: NF-κB assay: THP1-NF-κB-LUC cells, LPS-stimulated secreted luciferase). Conditions: THP1-NF-κB-LUC cells, LPS-stimulated; read-out: IC50 (NF-κB assay).
Assay type: cell-based
Procedure: FIG. 1 contains line plots showing NF-κB activity of exemplified compounds. 25k THP1-NF-κB-LUC cells were dispensed into 384 well plate (per well). Cells were treated with compounds (2 μM and 0.2 μM) for 2 hours before addition of LPS (10 ng/mL) for 18 hours. Secreted luciferase activity were measured using quant-luc reagents (1 bag of luc reagent dilute to 40 mL, use 10 μL per well). Data were normalized to vehicle control and graphed. Structures of selected exemplified compounds are shown.
FIG. 2 contains heat charts showing NF-κB activity of exemplified compounds as a function of concentration. 25k THP1-NF-κB-LUC cells were dispensed into 384 well plate (per well). Cells were treated with compounds (with serial dilution) for 2 hours before addition of LPS (10 ng/ml) for 18 hours. Secreted luciferase activity were measured using quant-luc reagents (1 bag of luc reagent dilute to 40 mL, use 10 μL per well). Structures of selected exemplified compounds are shown.
25k THP1-NF-κB-LUC cells were dispensed into 384 well plate (per well). Cells were treated with compounds with various concentrations for 2 hours before addition of LPS (10 ng/mL) for 18 hours. Secreted luciferase activity were measured using quant-luc reagents (1 bag of luc reagent dilute to 40 mL, use 10 μL per well). Data were normalized to vehicle control and graphed. Compound IC50 towards inhibiting NF-κB were determined through Prism. Similarly, 10k human PBMCs cells were cultured in 384 well plate (per well). Cells were treated with compounds with various concentrations for 2 hours before addition of LPS (10 ng/ml) for 18 hours, and supernatants were collected and assayed for TNF ELISA. Compound IC50 towards inhibiting TNF release were determined through Prism. • Activity: “+”>10 μM, “++”>1 μM and <10 μM, “+++”>0.1 μM and <1 μM, “++++”<0.1 μM.

Row | SMILES | IC50 [nM]
1 | CCN(CC)C(=O)c1ccc2nc(-c3ccccc3)c(-c3ccccc3)nc2c1 [BC18400] | < 100
2 | CCOc1ccccc1CNC(=O)c1ccc2nc(-c3ccc(F)cc3)c(-c3ccc(F)cc3)nc2c1 [BC18401] | 100 to 1000
3 | CCCNC(=O)c1ccc2nc(-c3cccc(C)c3)c(-c3cccc(C)c3)nc2c1 [BC18402] | 1000 to 10000
4 | CC(C)NC(=O)c1ccc2nc(-c3ccc(F)cc3)c(-c3ccc(F)cc3)nc2c1 [BC18403] | < 100
5 | CCOCCCNC(=O)c1ccc2nc(-c3ccc(F)cc3)c(-c3ccc(F)cc3)nc2c1 [BC18404] | < 100
6 | O=C(NCc1cccnc1)c1ccc2nc(-c3ccccc3)c(-c3ccccc3)nc2c1 [BC18405] | < 100
7 | CCC1CCN(CCNC(=O)c2ccc3nc(-c4ccccc4)c(-c4ccccc4)nc3c2)CC1 [BC18406] | < 100
8 | CNC(=O)c1ccc2nc(-c3cccc(C)c3)c(-c3cccc(C)c3)nc2c1 [BC18407] | 1000 to 10000
9 | COc1cccc(CNC(=O)c2ccc3nc(-c4ccc(F)cc4)c(-c4ccc(F)cc4)nc3c2)c1 [BC18408] | 100 to 1000
10 | O=C(c1ccc2nc(-c3ccccc3)c(-c3ccccc3)nc2c1)N1CCCC1 [BC18409] | < 100
11 | O=C(NCc1ccccn1)c1ccc2nc(-c3ccccc3)c(-c3ccccc3)nc2c1 [BC18410] | < 100
12 | CCOc1ccc(-c2nc3ccc(C(=O)NCCN(CC)CC)cc3nc2-c2ccc(OCC)cc2)cc1 [BC18411] | 1000 to 10000
13 | O=C(c1ccc2nc(-c3ccccc3)c(-c3ccccc3)nc2c1)N1CCN(c2ccccc2)CC1 [BC18412] | 1000 to 10000
14 | CSc1ccc(CNC(=O)c2ccc3nc(-c4ccc(F)cc4)c(-c4ccc(F)cc4)nc3c2)cc1 [BC18413] | 100 to 1000
15 | Cc1cccc(-c2nc3ccc(C(=O)NCc4ccc(F)cc4)cc3nc2-c2cccc(C)c2)c1 [BC18414] | > 10000
16 | CCCNC(=O)c1ccc2nc(-c3ccc(F)cc3)c(-c3ccc(F)cc3)nc2c1 [BC18415] | < 100
17 | CC(C)OCCCNC(=O)c1ccc2nc(-c3ccc(F)cc3)c(-c3ccc(F)cc3)nc2c1 [BC18416] | < 100
18 | CCN(CC)CCCNC(=O)c1ccc2nc(-c3ccccc3)c(-c3ccccc3)nc2c1 [BC18417] | < 100

Row | SMILES | IC50 [nM]
19 | CCCN1CCN(CCCNC(=O)c2ccc3nc(-c4ccccc4)c(-c4ccccc4)nc3c2)CC1 [BC18418] | 100 to 1000
20 | CCCN(CCC)CCNC(=O)c1ccc2nc(-c3cccc(C)c3)c(-c3cccc(C)c3)nc2c1 [BC18419] | 1000 to 10000
21 | O=C(NCc1ccc(F)cc1)c1ccc2nc(-c3ccc(F)cc3)c(-c3ccc(F)cc3)nc2c1 [BC18420] | 100 to 1000
22 | O=C(NCc1ccc(Cl)cc1)c1ccc2nc(-c3ccccc3)c(-c3ccccc3)nc2c1 [BC18421] | > 10000
23 | COCCNC(=O)c1ccc2nc(-c3ccccc3)c(-c3ccccc3)nc2c1 [BC18422] | < 100
24 | C=CCN(CC=C)C(=O)c1ccc2nc(-c3ccccc3)c(-c3ccccc3)nc2c1 [BC18423] | < 100
25 | Cc1cccc(CNC(=O)c2ccc3nc(-c4ccc(F)cc4)c(-c4ccc(F)cc4)nc3c2)c1 [BC18424] | 100 to 1000
26 | Cc1cccc(-c2nc3ccc(C(=O)NCCN4CCOCC4)cc3nc2-c2cccc(C)c2)c1 [BC18425] | 1000 to 10000
27 | CCN(CC)CCNC(=O)c1ccc2nc(-c3ccc(F)cc3)c(-c3ccc(F)cc3)nc2c1 [BC18426] | < 100
28 | CCNC(=O)c1ccc2nc(-c3ccc(F)cc3)c(-c3ccc(F)cc3)nc2c1 [BC18427] | < 100
29 | CCN(CC)CCNC(=O)c1ccc2nc(-c3ccccc3)c(-c3ccccc3)nc2c1 [BC18428] | < 100
30 | O=C(c1ccc2nc(-c3ccccc3)c(-c3ccccc3)nc2c1)N1CCOCC1 [BC18429] | < 100
31 | Cc1cccc(-c2nc3ccc(C(=O)NCCN4CCCC4)cc3nc2-c2cccc(C)c2)c1 [BC18430] | 1000 to 10000
32 | O=C(NC1CCCCC1)c1ccc2nc(-c3ccc(F)cc3)c(-c3ccc(F)cc3)nc2c1 [BC18431] | 100 to 1000
33 | CCCCNC(=O)c1ccc2nc(-c3ccccc3)c(-c3ccccc3)nc2c1 [BC18432] | 100 to 1000
34 | Cc1ccc(CNC(=O)c2ccc3nc(-c4ccc(C)cc4)c(-c4ccc(C)cc4)nc3c2)cc1 [BC18433] | > 10000
35 | CCCN(Cc1ccc(C)cc1)C(=O)c1ccc2nc(-c3ccccc3)c(-c3ccccc3)nc2c1 [BC18434] | 100 to 1000

Same assay, conditions: THP1-NF-κB-LUC cells; compounds 2 hours before LPS (10 ng/mL) for 18 hours; secreted luciferase; read-out: IC50 (NF-κB assay)

Row | SMILES | IC50 [nM]
36 | N#Cc1ccc2c(=O)c(S(=O)(=O)c3ccc(F)c(Cl)c3)c[nH]c2c1 [BC18300] | 100 to 1000
37 | O=c1c(S(=O)(=O)c2cccc(F)c2)c[nH]c2c(F)cccc12 [BC18301] | 1000 to 10000
38 | Cc1ccc(S(=O)(=O)c2c[nH]c3cc(Cl)ccc3c2=O)cc1F [BC18302] | < 100
39 | Cc1ccc(S(=O)(=O)c2c[nH]c3ccc(F)cc3c2=O)cc1F [BC18303] | < 100
40 | O=c1c(S(=O)(=O)c2cc(Cl)cc(Cl)c2)c[nH]c2ccc(Cl)cc12 [BC18304] | 1000 to 10000
41 | N#Cc1ccc2[nH]cc(S(=O)(=O)c3cc(Cl)cc(Cl)c3)c(=O)c2c1 [BC18305] | 100 to 1000
42 | N#Cc1ccc(S(=O)(=O)c2c[nH]c3ccc(F)cc3c2=O)cc1 [BC18306] | > 10000
43 | COc1ccc2[nH]cc(S(=O)(=O)c3ccc(C)c(F)c3)c(=O)c2c1 [BC18307] | 100 to 1000
44 | COc1ccc2[nH]cc(S(=O)(=O)c3cc(Cl)cc(Cl)c3)c(=O)c2c1 [BC18308] | > 10000
45 | COc1ccc(S(=O)(=O)c2c[nH]c3cc(F)ccc3c2=O)cc1 [BC18309] | 1000 to 10000
46 | N#Cc1cccc(S(=O)(=O)c2c[nH]c3cc(C#N)ccc3c2=O)c1 [BC18310] | < 100
47 | Cc1ccc2[nH]cc(S(=O)(=O)c3ccc(C#N)cc3)c(=O)c2c1 [BC18311] | > 10000
48 | COc1ccc2[nH]cc(S(=O)(=O)c3ccc(C#N)cc3)c(=O)c2c1 [BC18312] | > 10000
49 | Cc1ccc(S(=O)(=O)c2cc3cc(Cl)ccc3oc2=O)cc1Cl [BC18313] | > 10000
50 | Cc1ccc(S(=O)(=O)c2cc3cc(Br)ccc3oc2=O)cc1Cl [BC18314] | > 10000
51 | Cc1cc(C)c(S(=O)(=O)c2ccc(Br)cc2)c(=O)[nH]1 [BC18315] | > 10000
52 | COc1ccc2cc(S(=O)(=O)c3ccc(C)c(Cl)c3)c(=O)oc2c1 [BC18316] | > 10000
53 | N#Cc1cccc(S(=O)(=O)c2cc3cc(Br)ccc3oc2=O)c1 [BC18317] | > 10000
54 | CCc1ccc(C(=O)C2=CN(c3ccccc3)c3ccc(F)cc3S2(=O)=O)cc1 [BC18318] | > 10000
55 | COc1cccc2cc(S(=O)(=O)c3ccc(C)c(Cl)c3)c(=O)oc12 [BC18319] | > 10000
56 | CCc1ccc(S(=O)(=O)c2c[nH]c3cc(F)c(F)cc3c2=O)cc1 [BC18320] | < 100

Row | SMILES | IC50 [nM]
57 | CCc1ccc(S(=O)(=O)c2c[nH]c3ccc(F)cc3c2=O)cc1 [BC18321] | 100 to 1000
58 | CC(C)(C)c1ccc(S(=O)(=O)c2c[nH]c3ccc(Br)cc3c2=O)cc1 [BC18322] | 1000 to 10000
59 | CCOc1ccc2[nH]cc(S(=O)(=O)c3ccc(CO)cc3)c(=O)c2c1 [BC18323] | 100 to 1000
60 | Cc1ccc(S(=O)(=O)c2cn(C)c3cc(F)c(F)cc3c2=O)cc1 [BC18324] | > 10000
61 | CCn1cc(S(=O)(=O)c2ccc(C)cc2)c(=O)c2cc(F)ccc21 [BC18325] | > 10000
62 | CCc1ccc2c(c1)c(=O)c(S(=O)(=O)c1ccc(C)cc1)cn2C [BC18326] | > 10000
63 | CCOc1ccc2c(c1)c(=O)c(S(=O)(=O)c1ccc(Cl)cc1)cn2C [BC18327] | > 10000
64 | Cc1ccc(S(=O)(=O)c2cn(Cc3cccc(C)c3)c3ccc(F)cc3c2=O)cc1 [BC18328] | 1000 to 10000
65 | COc1ccc(S(=O)(=O)c2cn(CC(=O)Nc3ccc(C)cc3)c3ccc(Cl)cc3c2=O)cc1 [BC18329] | > 10000
66 | COc1ccc(S(=O)(=O)c2cn(CC(=O)Nc3ccc(C)cc3)c3ccc(F)cc3c2=O)cc1 [BC18330] | > 10000
67 | CCc1ccc(S(=O)(=O)c2cn(CCO)c3cc(F)c(F)cc3c2=O)cc1 [BC18331] | > 10000
68 | COc1ccc(S(=O)(=O)c2cn(CC(=O)Nc3ccccc3)c3ccc(F)cc3c2=O)cc1 [BC18332] | > 10000
69 | COc1cc2c(=O)c(S(=O)(=O)c3ccc(Cl)cc3)cn(Cc3ccccc3F)c2cc1OC [BC18333] | > 10000
70 | COc1ccc(S(=O)(=O)c2cn(CC(=O)Nc3ccc(Cl)cc3)c3ccc(C)cc3c2=O)cc1 [BC18334] | > 10000
71 | COc1ccc(S(=O)(=O)c2cn(CC(=O)Nc3ccc(F)cc3)c3ccc(C)cc3c2=O)cc1 [BC18335] | > 10000
72 | CCCCn1cc(S(=O)(=O)c2ccc(C)cc2)c(=O)c2cc(Cl)ccc21 [BC18336] | > 10000
73 | COc1cc2c(=O)c(S(=O)(=O)c3ccccc3)cn(Cc3cccc(Cl)c3)c2cc1OC [BC18337] | > 10000
74 | COc1ccc2[nH]cc(S(=O)(=O)c3ccc(OC)c(OC)c3)c(=O)c2c1 [BC18338] | > 10000
75 | N#Cc1ccc(S(=O)(=O)c2c[nH]c3cc(F)ccc3c2=O)cc1F [BC18339] | 100 to 1000
76 | O=c1c(S(=O)(=O)c2ccc(F)c(F)c2)c[nH]c2c(F)ccc(Cl)c12 [BC18340] | < 100
